Consider 11 compounds from ChEMBL document CHEMBL1201862, “PubChem BioAssay data set” (2004).

Each structure is given as a SMILES string.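 Each compound was tested at five concentrations against cells in 96-well plates for 48 hours. The concentration for 50% growth inhibition is given as GI50.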 Activity calls are given as the source filed them. Cut-off read from the data, not from the text of the source: active = GI50 up to about 1.1 µM and inactive = higher. Where only a bound is given, the exact number is not on record here.

Test systems include HCT-116; K562; ACHN; TK-10; CAKI-1; LOX IMVI; CCRF-CEM; SNB-19; UACC-257; NCI-H460; MOLT-4; RXF 393; OVCAR-8; HOP-62; 786-0; HCT-15; SF-295; NCI-H23; SN12C; OVCAR-3.
What all share (experiment): NCI anticancer screen, dose series, 48 h

For the compound `CCCCCCCCCCCCNC(=S)OC`, the GI50 in the assay with HCT-116 was 15.4 µM (inactive); with K562, 17.5 µM (inactive); in the assay on ACHN it was 17.9 µM (inactive); with TK-10, 19.5 µM (inactive); in the assay with CAKI-1, 14.8 µM (inactive); in the assay on LOX IMVI, 15.2 µM (inactive). Further, the GI50 in the assay on CCRF-CEM was 10.5 µM (inactive); in the assay with SNB-19, 24.7 µM (inactive); in the assay on UACC-257, 16.7 µM (inactive); in the assay on NCI-H460, 17.3 µM (inactive); with MOLT-4, 2.16 µM (inactive); in the assay on RXF 393 it was 12.8 µM (inactive). Besides, the GI50 in the assay with OVCAR-8 was 15.8 µM (inactive); in the assay with HOP-62, 18 µM (inactive); with 786-0, 15.8 µM (inactive); with HCT-15, 14.6 µM; with SF-295, 19.4 µM (inactive); in the assay with NCI-H23 it was 17.8 µM (inactive). Further, in the assay on SN12C, the GI50 was 14.3 µM (inactive).
Regarding `CC1(CO)OC(n2cnc3c(N)ncnc32)C(O)C1O` (centres undefined), the GI50 with HCT-116, with K562, in the assay with ACHN, in the assay on TK-10, in the assay with CAKI-1 and with LOX IMVI was > 100 µM (inactive) in each case. Moreover, the GI50 with CCRF-CEM, in the assay on SNB-19, with NCI-H460, in the assay on MOLT-4, in the assay with RXF 393 and with OVCAR-8 was > 100 µM (inactive) throughout. Also, the GI50 was > 100 µM (inactive) with HOP-62; > 100 µM (inactive) in the assay with 786-0; greater than 100 µM with HCT-15; > 100 µM (inactive) in the assay on SF-295; > 100 µM (inactive) in the assay with NCI-H23; > 100 µM (inactive) with OVCAR-3. Further, in the assay on SN12C, the GI50 is > 100 µM (inactive).
Regarding `N=C(N)NCC(N)C(=O)O` (centres undefined), the GI50 in the assay with HCT-116, with K562, in the assay on ACHN, in the assay on TK-10, with CAKI-1 and with LOX IMVI was > 100 µM (inactive) each time. In addition, the GI50 with SNB-19, in the assay with UACC-257, in the assay on NCI-H460, with RXF 393, in the assay with OVCAR-8 and with HOP-62 was > 100 µM (inactive) each time. Also, the GI50 with 786-0 is > 100 µM (inactive); in the assay on HCT-15, greater than 100 µM; with SF-295 it was > 100 µM (inactive); in the assay on NCI-H23 it was > 100 µM (inactive); with OVCAR-3, > 100 µM (inactive); in the assay with SN12C, > 100 µM (inactive).
As to `COC(=O)C1CCC(=O)C(Sc2ccccc2)C1` (centres undefined), the GI50 was > 100 µM (inactive) in the assay on HCT-116; 63.1 µM (inactive) in the assay on K562; > 100 µM (inactive) in the assay on ACHN; > 100 µM (inactive) in the assay on TK-10; > 100 µM (inactive) in the assay with CAKI-1; > 100 µM (inactive) in the assay on LOX IMVI. Further, the GI50 in the assay with CCRF-CEM is 22.5 µM (inactive); in the assay with SNB-19, > 100 µM (inactive); in the assay with UACC-257, 83.8 µM (inactive); with NCI-H460 it was > 100 µM (inactive); in the assay with MOLT-4, 27.6 µM (inactive); with RXF 393 it was > 100 µM (inactive). The GI50 in the assay with OVCAR-8 was > 100 µM (inactive); in the assay on HCT-15 it was greater than 100 µM; in the assay with SF-295, > 100 µM (inactive); in the assay with NCI-H23 it was > 100 µM (inactive); in the assay with OVCAR-3, > 100 µM (inactive); in the assay with SN12C, > 100 µM (inactive).
Regarding `O=C1c2ccccc2C2(c3ccc(Cl)cc3)N[C@H]3CCCC[C@@H]3N12` (some centres undefined), the GI50 in the assay with HCT-116 was 60.1 µM (inactive); in the assay on K562, > 100 µM (inactive); in the assay with ACHN, > 100 µM (inactive); in the assay with TK-10, > 100 µM (inactive); in the assay on CAKI-1 it was > 100 µM (inactive); in the assay on LOX IMVI, > 100 µM (inactive). The GI50 with CCRF-CEM was 53.2 µM (inactive); in the assay on SNB-19, 35.4 µM (inactive); with UACC-257 it was > 100 µM (inactive); in the assay with MOLT-4, 36.7 µM (inactive); in the assay with RXF 393, 97.9 µM (inactive); with OVCAR-8, > 100 µM (inactive). The GI50 in the assay with HOP-62 is 41.1 µM (inactive); with 786-0, 95.1 µM (inactive); in the assay with HCT-15, greater than 100 µM; in the assay on SF-295, > 100 µM (inactive); in the assay with NCI-H23, > 100 µM (inactive); with OVCAR-3, > 100 µM (inactive). For the same compound, the GI50 in the assay on SN12C is > 100 µM (inactive).
For `FC(F)(F)c1ccc2c(c1)nc1n2C(c2c(Cl)cccc2Cl)SC1` (centres undefined), the GI50 was 15.1 µM (inactive) with HCT-116; 15.9 µM (inactive) in the assay on ACHN; 22 µM (inactive) in the assay on TK-10; 14.9 µM (inactive) in the assay with CAKI-1; 25.9 µM (inactive) in the assay with LOX IMVI; 19.1 µM (inactive) with SNB-19. Besides, the GI50 in the assay with UACC-257 was 18.9 µM (inactive); in the assay on NCI-H460, 16.8 µM (inactive); with MOLT-4, 38.7 µM (inactive); with RXF 393 it was 14.4 µM (inactive); in the assay with OVCAR-8, 25.4 µM (inactive); in the assay with HOP-62 it was 15.4 µM (inactive). Besides, the GI50 was 16.6 µM (inactive) in the assay with 786-0; 21.6 µM with HCT-15; 16.6 µM (inactive) in the assay with SF-295; 20.5 µM (inactive) in the assay with NCI-H23; 13.2 µM (inactive) with OVCAR-3; 16.9 µM (inactive) in the assay with SN12C.
On to `O=c1[nH]cnc2c(COCCCO)c[nH]c12`, for which the GI50 in the assay on HCT-116, in the assay on K562, in the assay with ACHN, in the assay on TK-10, in the assay with CAKI-1 and in the assay on LOX IMVI was > 100 µM (inactive) throughout. For the same compound, the GI50 in the assay with CCRF-CEM, in the assay with SNB-19, in the assay with UACC-257, in the assay with MOLT-4, with RXF 393 and with OVCAR-8 was > 100 µM (inactive) throughout. Also, the GI50 is > 100 µM (inactive) in the assay with HOP-62; > 100 µM (inactive) with 786-0; greater than 100 µM with HCT-15; > 100 µM (inactive) in the assay with SF-295; > 100 µM (inactive) with NCI-H23; > 100 µM (inactive) in the assay with OVCAR-3. For the same compound, the GI50 in the assay with SN12C was > 100 µM (inactive).
As for `Oc1cccc(-c2nc3ccccc3s2)c1`, the GI50 was 33 µM (inactive) with HCT-116; 55.6 µM (inactive) in the assay on K562; 41 µM (inactive) with ACHN; 23.9 µM (inactive) in the assay on CAKI-1; 26.5 µM (inactive) in the assay with LOX IMVI; 57 µM (inactive) with CCRF-CEM. In addition, the GI50 was 67.3 µM (inactive) in the assay with SNB-19; 26.4 µM (inactive) with UACC-257; 34 µM (inactive) in the assay with NCI-H460; 24.2 µM (inactive) in the assay on MOLT-4; 32.1 µM (inactive) with RXF 393; 27.2 µM (inactive) in the assay with OVCAR-8. The GI50 is 22.5 µM (inactive) in the assay on HOP-62; 71.6 µM (inactive) in the assay on 786-0; 25.5 µM in the assay on HCT-15; 26.7 µM (inactive) with SF-295; 15.8 µM (inactive) in the assay on NCI-H23; 21.6 µM (inactive) with OVCAR-3. For the same compound, the GI50 with SN12C is 33.8 µM (inactive).
As to `COc1cc(=O)oc(/C=C/C=O)c1C`, the GI50 with HCT-116 is 5.21 µM (inactive); in the assay on K562, 8.53 µM (inactive); in the assay with ACHN it was 19.2 µM (inactive); in the assay on TK-10, 31.2 µM (inactive); in the assay with CAKI-1, 33 µM (inactive); with LOX IMVI, 5.2 µM (inactive). In addition, the GI50 in the assay with CCRF-CEM is 5.36 µM (inactive); in the assay with SNB-19, 14.8 µM (inactive); in the assay on UACC-257, 18.9 µM (inactive); with MOLT-4, 27.5 µM (inactive); in the assay with RXF 393, 18.8 µM (inactive); with OVCAR-8, 26.3 µM (inactive). Also, the GI50 in the assay on HOP-62 is 19.5 µM (inactive); with 786-0 it was 20.7 µM (inactive); in the assay with SF-295, 15.8 µM (inactive); with NCI-H23 it was 21.9 µM (inactive); in the assay with OVCAR-3, 19 µM (inactive); with SN12C it was 8.24 µM (inactive).
Take `Cc1c2cc[n+](C)cc2c(C)c2c1[nH]c1ccccc12`: the GI50 in the assay on HCT-116 was 3.76 µM (inactive); in the assay on K562, 3.05 µM (inactive); in the assay with ACHN, 12.8 µM (inactive); in the assay with TK-10, 27.2 µM (inactive); in the assay with CAKI-1, 2.69 µM (inactive); with LOX IMVI, 6.59 µM (inactive). Also, the GI50 is 2.25 µM (inactive) with CCRF-CEM; 0.301 µM (active) with SNB-19; 6.41 µM (inactive) in the assay on UACC-257; 1.89 µM (inactive) with NCI-H460; 0.861 µM (active) with MOLT-4; 1.7 µM (inactive) in the assay with RXF 393. Further, the GI50 in the assay on OVCAR-8 is 0.368 µM (active); with HOP-62 it was 0.45 µM (active); in the assay with SF-295, 0.237 µM (active); in the assay with NCI-H23, 0.773 µM (active); in the assay on OVCAR-3, 3.06 µM (inactive); in the assay on SN12C it was 0.172 µM (active).
`Cc1ccc(O)c(C(c2ccc([N+](=O)[O-])cc2)c2cc(C)ccc2O)c1`: the GI50 in the assay on HCT-116 was 14.4 µM (inactive); in the assay with K562 it was 12.2 µM (inactive); in the assay with ACHN it was 6.1 µM (inactive); in the assay with TK-10, 16.3 µM (inactive); in the assay with CAKI-1 it was 15.1 µM (inactive); in the assay on LOX IMVI, 22.7 µM (inactive). Besides, the GI50 in the assay with CCRF-CEM is 10.8 µM (inactive); in the assay on SNB-19 it was 13.1 µM (inactive); with UACC-257, 14.6 µM (inactive); in the assay on MOLT-4 it was 5.12 µM (inactive); in the assay with RXF 393, 8.09 µM (inactive); in the assay on OVCAR-8, 11.7 µM (inactive). The GI50 was 10.8 µM (inactive) in the assay with HOP-62; 21.2 µM (inactive) with 786-0; 8.18 µM with HCT-15; 14.5 µM (inactive) in the assay on SF-295; 7.93 µM (inactive) in the assay with NCI-H23; 6.32 µM (inactive) in the assay with OVCAR-3. Moreover, the GI50 with SN12C was 13.7 µM (inactive).
